Experimental data as given in patent publication US8513292B2, “Compositions and methods for the treatment of cancer” (ArQule, Inc., priority 2007, dated 2013).
Where a SMILES comes first, the peptide text is derived from it. The star is where a group is joined. Cbz = O=C(OCc1ccccc1)*; CH2F = FC*

Assays:
HT29 cells [1] = assay: MTS assay; format: cell-based; details: Homo sapiens, HT-29, compound for 24 hours, then drug-free medium for additional 48 hours, MTS readout
Procedure: HT29 cells were seeded in 96-well plates at 1,800 cells/well overnight in medium with 10% FBS. The next day, cells were treated with increasing concentrations of compounds for 24 hours at 37° C. After the treatments, the compound-containing medium was removed, cells were washed twice with PBS, and incubated in drug-free medium containing 10% FBS for an additional 48 hours. After addition of MTS and PMS for 4 hours at concentrations of 2 mg/mL and 0.92 mg/mL, respectively, the results were quantitated by spectrophotometry at λ=490 nm and IC50 for each compound was determined

[2] = target: T1, Recombinant unphosphorylated c-Met comprising residues 1038-1346 (Homo sapiens, UniProt P08581); assay: c-Met p33 kinase assay (33P-ATP, IGF-1 Rtide substrate); format: biochemical; details: 15 minutes preincubation, 100 μM ATP, 30 minutes reaction
T1 construct: The DNA fragment encoding the kinase domain (1038-1346) was inserted into Novagen vector pet28a; six-histidine tag (N); made in house; host or cells: E. coli BL21(DE3)RIL
T1 sequence (P08581 1038-1346): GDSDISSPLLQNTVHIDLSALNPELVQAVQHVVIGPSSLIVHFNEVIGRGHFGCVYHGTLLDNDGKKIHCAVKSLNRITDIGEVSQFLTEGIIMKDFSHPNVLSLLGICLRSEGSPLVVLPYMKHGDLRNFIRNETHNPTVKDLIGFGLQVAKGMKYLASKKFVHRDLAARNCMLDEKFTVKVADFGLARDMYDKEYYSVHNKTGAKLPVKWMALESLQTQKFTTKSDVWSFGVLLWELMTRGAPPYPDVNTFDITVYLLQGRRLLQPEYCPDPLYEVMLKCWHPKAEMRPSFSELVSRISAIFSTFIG
Source text: cDNA of full-length c-Met purchased from Origen Technologies was used as template for PCR amplification. The DNA fragment encoding the kinase domain (1038-1346) was inserted into Novagen vector pet28a between Nco1 and Sal1 sites. The primers were designed to contain a six-histidine tag to the N-terminus. In order to express dephosphorylated c-Met kinase protein, a tyrosine phosphatase PTP1B (1-283) was sequentially ligated into the made construct between SalI and Nod sites. A second ribosome binding site was incorporated in the PTP1B primer after the SalI site. The N-terminal His-tagged proteins were expressed in Circlegrow broth (Q-Biogen). The transformed E. Coli cell line BL21(DE3)RIL (Stratagene) was cultured to OD=0.8 at 37° C. and induced with 0.3 mM of IPTG for overnight at 12° C. The co-expressed protein was purified by metal-chelation chromatography followed by anion and cation columns. In brief, 4 liters of cells were lysed by sonication in 140 ml buffer containing 20 mM MOPS pH=6.5, 200 mM NaCl, 7.5% glycerol, 0.1% Igepal, supplied with 1 mM PMSF. The supernatant was obtained by centrifugation at 50,000 g for 30 minutes and followed by incubation with 8 mL of Ni-NTA His Bind resin (Novagen) at 4° C. for one hour. A second step 50 mL wash buffer (with 100 mM NaCl and 5 mM imidazole) was applied after initial wash with the lysis buffer. Protein was eluted by 200 mM imidazole pH=8.5, 100 mM NaCl and 7.5% glycerol and directly cleared by passing 10 mL QFF column. The salt concentration and the pH value of the protein flow through were adjusted to 50 mM and 7.5 by dilution, and then loaded to 1 mL SP FF column. The protein was further gel-filtered in an equilibrium buffer of 20 mM TrisHCl pH=8.5, 150 mM NaCl, 7.5% glycerol and 2 mM DTT. The monomeric unphosphorylated c-Met protein was concentrated to 30 mg/mL for storage at −80° C.
Recombinant unphosphorylated c-Met comprising residues 1038-1346 (12.5 ng) was pre-incubated with increasing concentrations of compounds for 15 minutes at room temperature. […]

HT29 cells [3] = assay: Cell death by Annexin V-Fluos staining after siRNA transfection, high content imaging; format: cell-based; details: increasing concentrations of caspase inhibitor for 1 additional day after transfection
Procedure: Exponentially growing HT29 cells were plated in black 96-well plates at 5,000 cells/well overnight in medium with 10% FBS. The next day, cells were transiently transfected for 2 days using DharmaFECT 4 reagent with a pool of four met-specific 21-nucleotide RNA oligonucleotides forming a 19-bp duplex core with 2-nucleotide 3′ overhang in combination (Dharmacon, Inc., Lafayette, Colo.). Transfection of gapdh siRNA (Dharmacon, Inc.) and of a non-targeting siRNA under the same conditions was done in parallel as controls (Dharmacon, Inc.). Cells were then incubated in the absence or the presence of increasing concentrations of ZvAD-FMK, an irreversible caspase inhibitor for 1 additional day. Cells were incubated for at least 10 minutes in a labeling solution (10 mM HEPES, 140 mM NaCl and 6 mM CaCl2) containing 2 μg/ml Hoechst 33342 (blue channel; Molecular Probes/Invitrogen Corp., Natick, Mass.), 500 times diluted Annexin V-Fluos (green channel; Roche Applied Science, Indianapolis, Ind.) and 1 μg/ml propidium iodide (red channel; Roche Applied Science). High content image acquisition and analysis were carried out using a Beckman Coulter IC100 Cytometer. The program was set to take four images per well. […] Images were processed and numbers of positive cells for each channel and each condition were determined using Cytoshop 2.1 software (Beckman Coulter, Inc.). […]

SMILES | IC50 (HT29 cells [1]) | IC50 [2] | melting point | levels of cell death in met siRNA transfected cells (HT29 cells [3])
O=C1NC(=O)[C@@H](c2cc3c4c(ccn4CCC3)c2)[C@H]1c1c[nH]c2ccccc12 (racemic) [Example 16] | ≤ 1000 nM | ≥ 10000 nM | 141 to 145 °C | –
O=C1NC(=O)[C@@H](c2cn3c4c(cccc24)CC3)[C@@H]1c1c[nH]c2ccccc12 (racemic) [Example 33, (±)-trans-3-(4,5-dihydro-pyrrolo[3,2,1-hi]indol-1-yl)-4-(1H-indol-3-yl)-pyrrolidine-2,5-dione] | ≤ 1000 nM | ≥ 10000 nM | 144 to 148 °C | –
O=C1NC(=O)[C@@H](c2c[nH]c3ccccc23)[C@@H]1Cc1cn2c3c(cccc13)CCC2 (racemic) [Example 6, (±)-trans-3-(5,6-dihydro-4H-pyrrolo[3,2,1-ij]quinolin-1-ylmethyl)-4-(1H-indol-3-yl)-pyrrolidine-2,5-dione] | 1000 to 10000 nM | – | 215 to 218 °C | –
COc1cccc([C@@H]2C(=O)NC(=O)[C@H]2c2cc3c4c(ccn4CCC3)c2)c1 (racemic) [Example 25, (±)-trans-3-(5,6-dihydro-4H-pyrrolo[3,2,1-ij]quinolin-8-yl)-4-(3-methoxy-phenyl)-pyrrolidine-2,5-dione] | ≤ 1000 nM | – | – | –
O=C1NC(=O)[C@@H](c2c[nH]c3ccc(Br)cc23)[C@@H]1c1cc2c3c(ccn3CCC2)c1 (racemic) [Example 19, (±)-trans-3-(5-bromo-1H-indol-3-yl)-4-(5,6-dihydro-4H-pyrrolo[3,2,1-ij]quinolin-8-yl)-pyrrolidine-2,5-dione] | ≤ 1000 nM | – | 195 to 200 °C | –
O=C1NC(=O)[C@H](c2c[nH]c3ccccc23)[C@@H]1C(=O)c1cn2c3c(cccc13)CCC2 (racemic) [Example 9, (±)-cis-3-(5,6-dihydro-4H-pyrrolo[3,2,1-ij]quinoline-1-carbonyl)-4-(1H-indol-3-yl)-pyrrolidine-2,5-dione] | 1000 to 10000 nM | ≥ 10000 nM | 283 to 285 °C | –
O=C1NC(=O)[C@@H](c2ccccc2Cl)[C@@H]1c1cc2c3c(ccn3CCC2)c1 (racemic) [Example 22, (±)-trans-3-(2-chloro-phenyl)-4-(5,6-dihydro-4H-pyrrolo[3,2,1-ij]quinolin-8-yl)-pyrrolidine-2,5-dione] | ≤ 1000 nM | – | 209 to 212 °C | –
COC(=O)C[C@H](NC(=O)[C@H](C)NC(=O)[C@@H](NC(=O)OCc1ccccc1)C(C)C)C(=O)CF [ZvAD-FMK] (Cbz-Val-Ala-Asp(OMe)-CH2F) | – | – | – | decreased the levels of cell death
